Results: US8691829B2, “Treatment of liver disorders with PI3K inhibitors” (Gilead Calistoga LLC, priority 2009, dated 2014)

Key:
PI3Kδ = PI3Kδ (Homo sapiens (Human), UniProt O00329); test: Activity of selected PI3K inhibitors, Ki (PI3Kδ); assay type: biochemical
Text: (§1) The compounds of formula (3) are readily prepared from available starting material using methods that are known in the art. […] Scheme A in that application provides a route by which the thienopyrimidinone portions of compounds of formula (2a) can be prepared, and Schemes B-G provide routes by which the thienopyrimidinone portions of compounds of formula (2b) can be prepared. […] These references also provide methods for determining the activity of these compounds as inhibitors of PI3Kδ; thus those methods are known in the art.

PI3Kα = PI3Kα (Homo sapiens (Human), UniProt P42336); test: Selectivity of selected PI3K inhibitors (α/δ); assay type: biochemical; settings: ratio PI3Kα relative to PI3Kδ
Text: as §1

PI3Kβ = PI3Kβ (Homo sapiens (Human), UniProt P42338); test: Selectivity of selected PI3K inhibitors (β/δ); assay type: biochemical; settings: ratio PI3Kβ relative to PI3Kδ
Text: as §1

PI3Kγ = PI3Kγ (Homo sapiens (Human), UniProt P48736); test: Selectivity of selected PI3K inhibitors (γ/δ); assay type: biochemical; settings: ratio PI3Kγ relative to PI3Kδ
Text: as §1

hepatocytes = hepatocytes exposed to conditions that generate reactive oxygen species; Kohli et al. 2007; cited from earlier work
steatosis development = settings: diet-induced p85 expression and steatosis; Kohli et al. 2007; cited from earlier work

PI3Kδ, sequence (O00329 whole entry, species assumed): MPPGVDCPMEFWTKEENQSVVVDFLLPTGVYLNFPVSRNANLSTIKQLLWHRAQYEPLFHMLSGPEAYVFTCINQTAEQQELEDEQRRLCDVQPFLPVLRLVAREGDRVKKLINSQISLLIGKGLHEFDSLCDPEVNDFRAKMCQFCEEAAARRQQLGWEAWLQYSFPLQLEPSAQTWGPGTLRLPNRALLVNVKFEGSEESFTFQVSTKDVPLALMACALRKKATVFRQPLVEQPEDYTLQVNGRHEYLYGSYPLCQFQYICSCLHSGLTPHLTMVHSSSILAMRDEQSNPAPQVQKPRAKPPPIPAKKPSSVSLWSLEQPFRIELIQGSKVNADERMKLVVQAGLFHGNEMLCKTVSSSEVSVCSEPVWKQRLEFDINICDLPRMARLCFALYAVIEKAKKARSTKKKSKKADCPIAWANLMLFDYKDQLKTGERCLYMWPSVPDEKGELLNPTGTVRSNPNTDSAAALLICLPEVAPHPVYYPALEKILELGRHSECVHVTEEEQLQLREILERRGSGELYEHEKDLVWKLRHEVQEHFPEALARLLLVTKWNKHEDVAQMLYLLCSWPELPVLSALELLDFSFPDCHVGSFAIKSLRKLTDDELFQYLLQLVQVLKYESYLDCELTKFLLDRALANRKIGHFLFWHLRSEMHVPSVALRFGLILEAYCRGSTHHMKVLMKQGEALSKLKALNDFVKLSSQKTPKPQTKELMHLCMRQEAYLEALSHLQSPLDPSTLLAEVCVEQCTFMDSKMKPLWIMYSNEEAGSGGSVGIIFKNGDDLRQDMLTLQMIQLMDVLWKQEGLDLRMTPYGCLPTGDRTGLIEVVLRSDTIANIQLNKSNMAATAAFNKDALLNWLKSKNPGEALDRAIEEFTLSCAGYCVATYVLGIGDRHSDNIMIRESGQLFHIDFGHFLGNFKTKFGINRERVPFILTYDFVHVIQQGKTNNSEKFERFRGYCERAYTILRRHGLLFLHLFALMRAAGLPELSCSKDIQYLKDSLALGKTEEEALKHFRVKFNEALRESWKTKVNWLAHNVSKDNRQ
PI3Kδ, sequence (P27986 whole entry partner, species assumed): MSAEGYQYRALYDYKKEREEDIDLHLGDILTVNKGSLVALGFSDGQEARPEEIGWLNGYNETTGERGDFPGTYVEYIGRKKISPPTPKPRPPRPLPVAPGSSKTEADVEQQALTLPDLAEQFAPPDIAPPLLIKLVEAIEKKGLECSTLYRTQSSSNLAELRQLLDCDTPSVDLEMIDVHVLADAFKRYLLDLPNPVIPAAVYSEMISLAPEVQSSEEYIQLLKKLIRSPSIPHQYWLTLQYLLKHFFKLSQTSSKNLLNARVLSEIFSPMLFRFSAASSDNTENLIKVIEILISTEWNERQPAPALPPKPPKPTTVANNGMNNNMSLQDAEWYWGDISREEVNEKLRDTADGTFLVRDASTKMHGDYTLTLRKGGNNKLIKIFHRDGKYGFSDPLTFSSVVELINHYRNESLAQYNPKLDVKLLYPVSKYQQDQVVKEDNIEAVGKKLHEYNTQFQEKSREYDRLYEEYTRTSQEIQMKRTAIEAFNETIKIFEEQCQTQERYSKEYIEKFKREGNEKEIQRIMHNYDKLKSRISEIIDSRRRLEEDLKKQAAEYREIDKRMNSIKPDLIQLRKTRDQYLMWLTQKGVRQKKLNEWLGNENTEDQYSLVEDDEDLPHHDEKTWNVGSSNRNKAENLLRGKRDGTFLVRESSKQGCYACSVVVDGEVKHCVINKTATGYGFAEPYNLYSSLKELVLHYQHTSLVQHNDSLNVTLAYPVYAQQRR
PI3Kβ, sequence (P42338 whole entry, species assumed): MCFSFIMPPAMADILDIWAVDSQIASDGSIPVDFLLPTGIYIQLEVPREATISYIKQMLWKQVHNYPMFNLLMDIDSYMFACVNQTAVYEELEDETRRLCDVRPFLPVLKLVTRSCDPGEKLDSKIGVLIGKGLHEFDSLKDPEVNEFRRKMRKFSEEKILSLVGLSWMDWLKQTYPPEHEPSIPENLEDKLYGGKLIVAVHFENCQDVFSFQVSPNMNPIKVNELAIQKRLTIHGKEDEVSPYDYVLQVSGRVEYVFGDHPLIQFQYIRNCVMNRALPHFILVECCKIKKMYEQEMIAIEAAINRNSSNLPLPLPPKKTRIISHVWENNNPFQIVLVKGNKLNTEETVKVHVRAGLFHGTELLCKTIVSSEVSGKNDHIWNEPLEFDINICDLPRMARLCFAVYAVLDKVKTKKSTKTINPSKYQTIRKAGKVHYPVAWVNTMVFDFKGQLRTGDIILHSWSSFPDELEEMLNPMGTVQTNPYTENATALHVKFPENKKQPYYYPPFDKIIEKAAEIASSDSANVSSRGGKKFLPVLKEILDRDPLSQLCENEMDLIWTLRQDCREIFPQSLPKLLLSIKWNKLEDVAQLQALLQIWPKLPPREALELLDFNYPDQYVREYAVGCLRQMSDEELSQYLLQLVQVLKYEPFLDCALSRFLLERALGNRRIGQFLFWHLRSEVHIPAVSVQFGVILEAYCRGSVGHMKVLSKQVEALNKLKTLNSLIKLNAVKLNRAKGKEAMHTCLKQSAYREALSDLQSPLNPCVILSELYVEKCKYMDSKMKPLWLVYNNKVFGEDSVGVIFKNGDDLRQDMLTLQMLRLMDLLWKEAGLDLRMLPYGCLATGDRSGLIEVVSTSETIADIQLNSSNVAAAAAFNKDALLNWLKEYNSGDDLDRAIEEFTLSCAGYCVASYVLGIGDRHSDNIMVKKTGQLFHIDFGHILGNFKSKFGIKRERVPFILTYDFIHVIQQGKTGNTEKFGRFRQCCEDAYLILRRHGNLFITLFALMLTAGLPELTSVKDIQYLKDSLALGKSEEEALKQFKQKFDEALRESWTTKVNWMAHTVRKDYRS
PI3Kβ, sequence (P27986 whole entry partner, species assumed): as the sequence (P27986 whole entry partner, species assumed) above
PI3Kγ, sequence (P48736 whole entry, species assumed): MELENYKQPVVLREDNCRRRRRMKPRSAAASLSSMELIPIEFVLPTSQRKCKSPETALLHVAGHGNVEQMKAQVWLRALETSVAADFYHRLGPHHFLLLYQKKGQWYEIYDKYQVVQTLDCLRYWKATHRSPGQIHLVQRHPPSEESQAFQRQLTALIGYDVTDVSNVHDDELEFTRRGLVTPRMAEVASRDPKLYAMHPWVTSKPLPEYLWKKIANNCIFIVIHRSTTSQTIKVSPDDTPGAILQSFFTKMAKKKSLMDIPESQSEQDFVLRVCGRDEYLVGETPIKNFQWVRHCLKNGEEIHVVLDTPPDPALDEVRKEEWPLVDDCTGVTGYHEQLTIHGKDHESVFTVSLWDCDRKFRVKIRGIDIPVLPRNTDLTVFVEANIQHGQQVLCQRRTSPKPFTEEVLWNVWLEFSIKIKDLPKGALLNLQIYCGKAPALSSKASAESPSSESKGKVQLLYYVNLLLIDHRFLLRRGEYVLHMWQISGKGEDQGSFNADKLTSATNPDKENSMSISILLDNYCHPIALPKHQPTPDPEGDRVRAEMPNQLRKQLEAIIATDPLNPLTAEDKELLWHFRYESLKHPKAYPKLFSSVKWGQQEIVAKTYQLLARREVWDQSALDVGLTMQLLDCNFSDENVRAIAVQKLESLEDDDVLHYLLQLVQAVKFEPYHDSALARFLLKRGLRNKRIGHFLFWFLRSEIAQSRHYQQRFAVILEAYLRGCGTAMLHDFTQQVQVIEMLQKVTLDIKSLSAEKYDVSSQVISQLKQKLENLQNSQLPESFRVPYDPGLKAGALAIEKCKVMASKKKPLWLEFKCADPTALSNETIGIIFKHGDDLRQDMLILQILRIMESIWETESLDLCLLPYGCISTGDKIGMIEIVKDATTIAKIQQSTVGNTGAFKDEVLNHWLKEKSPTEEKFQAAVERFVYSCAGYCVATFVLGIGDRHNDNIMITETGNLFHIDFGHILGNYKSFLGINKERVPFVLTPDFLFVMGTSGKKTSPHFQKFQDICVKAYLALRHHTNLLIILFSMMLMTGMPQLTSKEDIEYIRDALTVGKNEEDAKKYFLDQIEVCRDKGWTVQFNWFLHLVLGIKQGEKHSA
PI3Kα, sequence (P42336 whole entry, species assumed): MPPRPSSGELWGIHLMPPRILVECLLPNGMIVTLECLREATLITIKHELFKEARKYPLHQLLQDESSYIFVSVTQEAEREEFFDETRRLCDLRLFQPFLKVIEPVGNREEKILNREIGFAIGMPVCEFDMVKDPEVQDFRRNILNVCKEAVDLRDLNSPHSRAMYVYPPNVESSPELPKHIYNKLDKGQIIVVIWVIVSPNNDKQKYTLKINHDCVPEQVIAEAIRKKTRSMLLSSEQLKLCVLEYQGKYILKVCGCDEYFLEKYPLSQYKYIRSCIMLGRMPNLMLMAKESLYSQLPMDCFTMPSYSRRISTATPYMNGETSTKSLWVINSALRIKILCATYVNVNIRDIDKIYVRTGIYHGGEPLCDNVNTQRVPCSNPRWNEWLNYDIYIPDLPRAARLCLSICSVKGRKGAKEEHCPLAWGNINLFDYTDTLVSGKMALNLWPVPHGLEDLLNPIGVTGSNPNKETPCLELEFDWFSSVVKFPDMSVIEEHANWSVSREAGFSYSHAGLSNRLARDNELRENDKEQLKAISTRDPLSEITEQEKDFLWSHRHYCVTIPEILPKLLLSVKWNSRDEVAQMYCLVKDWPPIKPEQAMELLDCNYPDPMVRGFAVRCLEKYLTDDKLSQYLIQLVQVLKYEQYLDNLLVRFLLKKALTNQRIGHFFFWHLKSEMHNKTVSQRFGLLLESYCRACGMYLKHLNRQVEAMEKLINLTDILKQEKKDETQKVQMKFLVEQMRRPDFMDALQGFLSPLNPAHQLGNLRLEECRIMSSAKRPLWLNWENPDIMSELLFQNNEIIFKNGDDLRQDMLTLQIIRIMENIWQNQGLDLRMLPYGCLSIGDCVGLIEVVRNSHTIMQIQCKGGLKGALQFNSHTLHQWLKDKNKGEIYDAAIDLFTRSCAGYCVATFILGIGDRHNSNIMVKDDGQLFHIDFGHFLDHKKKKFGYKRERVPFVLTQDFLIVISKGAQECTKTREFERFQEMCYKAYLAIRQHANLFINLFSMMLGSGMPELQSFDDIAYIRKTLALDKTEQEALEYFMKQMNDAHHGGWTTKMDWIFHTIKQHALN
PI3Kα, sequence (P27986 whole entry partner, species assumed): as the sequence (P27986 whole entry partner, species assumed) above

Row | Compound | Ki (PI3Kδ) | Selectivity (α/δ) (PI3Kα) | Selectivity (β/δ) (PI3Kβ) | Selectivity (γ/δ) (PI3Kγ) | steatosis (accumulation of fat) in hepatocytes (hepatocytes) | steatosis development (steatosis development)
1 | Cc1cccc2nc(C(C)n3cnc4c(N)ncnc43)n(-c3ccccc3)c(=O)c12 (stereo not drawn) [4a] | 7 nM | 2963 | 119 | 61 |  | 
2 | O=c1cc(N2CCOCC2)oc2c(-c3ccccc3)cccc12 [LY294002] |  |  |  |  | can be inhibited | blocked steatosis development
3 | Cc1cccc2nc(C(C)Nc3ncnc4[nH]cnc34)n(-c3ccccc3)c(=O)c12 (stereo not drawn) [4b] | 5 nM | 132 | 29 | 12 |  | 
4 | CC(Nc1ncnc2[nH]cnc12)c1nc2ccsc2c(=O)n1-c1ccccc1 (stereo not drawn) [3e] | 6 nM | 528 | 123 | 28 |  | 
5 | CC(c1nc2ccsc2c(=O)n1-c1ccccc1)n1cnc2c(N)ncnc21 (stereo not drawn) [3d] | 40 nM | 1447 | 126 | 187 |  | 
